Data taken from ChEMBL document CHEMBL2146374, “Fused heterocyclic compounds as ion channel modulators: patent highlight” (ACS Med Chem Lett, 2012).

biological target: Nav1.5 (sodium channel protein type 5 subunit alpha) (Homo sapiens, UniProt Q14524); experiment: Inhibition of human Nav1.5 expressed in HEK293 cells at 1 uM by whole cell patch clamp assay; format: cell-based; conditions: HEK293 cells that express human Nav1.5
Sequence (Q14524 whole entry): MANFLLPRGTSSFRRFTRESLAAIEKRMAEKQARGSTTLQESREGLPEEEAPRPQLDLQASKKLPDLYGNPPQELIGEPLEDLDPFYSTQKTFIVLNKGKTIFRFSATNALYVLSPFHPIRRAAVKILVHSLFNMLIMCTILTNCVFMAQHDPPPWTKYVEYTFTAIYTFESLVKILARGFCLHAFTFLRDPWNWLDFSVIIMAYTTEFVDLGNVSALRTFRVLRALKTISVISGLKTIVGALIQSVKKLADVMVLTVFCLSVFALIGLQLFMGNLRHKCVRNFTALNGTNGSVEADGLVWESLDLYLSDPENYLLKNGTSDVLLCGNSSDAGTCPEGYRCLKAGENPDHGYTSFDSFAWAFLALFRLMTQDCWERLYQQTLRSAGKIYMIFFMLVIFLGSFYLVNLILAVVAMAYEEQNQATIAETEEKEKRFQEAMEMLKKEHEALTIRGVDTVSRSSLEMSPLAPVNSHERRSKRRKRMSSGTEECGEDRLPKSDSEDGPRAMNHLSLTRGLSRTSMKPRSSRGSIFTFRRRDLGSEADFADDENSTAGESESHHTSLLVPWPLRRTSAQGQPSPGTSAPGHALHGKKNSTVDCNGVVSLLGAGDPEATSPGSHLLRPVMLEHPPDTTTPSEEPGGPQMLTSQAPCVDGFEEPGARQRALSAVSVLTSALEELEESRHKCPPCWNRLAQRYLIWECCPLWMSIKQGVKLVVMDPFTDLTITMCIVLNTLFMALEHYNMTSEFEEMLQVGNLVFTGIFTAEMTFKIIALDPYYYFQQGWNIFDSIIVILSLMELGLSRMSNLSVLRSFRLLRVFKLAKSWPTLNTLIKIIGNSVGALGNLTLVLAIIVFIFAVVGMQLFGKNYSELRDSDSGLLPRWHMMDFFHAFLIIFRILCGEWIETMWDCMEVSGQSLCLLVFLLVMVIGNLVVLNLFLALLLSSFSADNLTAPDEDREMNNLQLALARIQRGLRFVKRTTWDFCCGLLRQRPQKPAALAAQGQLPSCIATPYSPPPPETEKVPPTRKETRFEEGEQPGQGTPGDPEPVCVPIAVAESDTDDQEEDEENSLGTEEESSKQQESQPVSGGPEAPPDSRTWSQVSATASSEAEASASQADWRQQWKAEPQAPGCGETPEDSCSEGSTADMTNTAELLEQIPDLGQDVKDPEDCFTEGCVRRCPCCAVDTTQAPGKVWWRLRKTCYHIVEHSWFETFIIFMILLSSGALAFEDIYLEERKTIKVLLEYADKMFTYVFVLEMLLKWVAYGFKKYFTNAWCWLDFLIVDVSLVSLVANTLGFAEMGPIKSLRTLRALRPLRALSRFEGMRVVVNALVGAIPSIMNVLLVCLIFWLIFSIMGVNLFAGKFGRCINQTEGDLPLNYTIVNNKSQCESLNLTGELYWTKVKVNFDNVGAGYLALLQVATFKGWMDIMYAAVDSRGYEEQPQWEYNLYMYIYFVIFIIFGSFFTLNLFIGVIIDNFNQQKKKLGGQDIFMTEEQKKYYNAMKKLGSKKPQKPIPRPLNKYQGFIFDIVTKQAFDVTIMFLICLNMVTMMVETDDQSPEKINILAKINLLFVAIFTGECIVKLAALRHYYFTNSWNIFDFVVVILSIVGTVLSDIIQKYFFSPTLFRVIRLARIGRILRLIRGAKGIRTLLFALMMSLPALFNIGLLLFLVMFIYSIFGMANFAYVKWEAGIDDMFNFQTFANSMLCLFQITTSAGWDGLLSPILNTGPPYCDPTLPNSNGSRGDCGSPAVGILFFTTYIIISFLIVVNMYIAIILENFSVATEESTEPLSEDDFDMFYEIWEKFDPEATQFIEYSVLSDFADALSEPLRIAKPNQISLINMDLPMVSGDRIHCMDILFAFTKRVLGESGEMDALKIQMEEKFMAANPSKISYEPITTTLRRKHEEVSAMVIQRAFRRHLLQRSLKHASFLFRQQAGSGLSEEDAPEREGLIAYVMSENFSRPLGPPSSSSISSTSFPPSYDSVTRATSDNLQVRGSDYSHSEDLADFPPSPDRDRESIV

Structure (SMILES) | inhibition at 1 µM
COc1ccccc1OCC(Cn1nc2ccc(-c3ccc(OC(F)(F)F)cc3)cn2c1=O)OC (centres undefined) | 55%
Cc1nc(Cn2nc3ccc(-c4ccc(Oc5ccc(Cl)cc5)cc4)cn3c2=O)no1 | 68.4%
Cc1noc(Cn2nc3ccc(-c4ccc(Oc5ccc(Cl)cc5)cc4)cn3c2=O)n1 | 55.8%
Cc1noc(Cn2nc3ccc(-c4ccc(Oc5ccc(F)cc5)cc4)cn3c2=O)n1 | 71.2%
